Source: patent US9211252B2, “Increased drug loading capacity of polymeric material” (Medtronic, Inc., priority 2007, dated 2015)
Entries after “also recorded” stand apart in the source; their conditions may differ. Like-named read-outs stand apart in the source and are kept apart here. One block for each molecule: values may come before it.

Columns and labels:
[1] = Solvent swelling of silicone boots; type: physicochemical; settings: silicone boots placed in solvent for 2 hours; solvent ratios by volume
Method: The effect of various solvents to swell (as determined by % weight increase) silicone boots was determined. Silicone boots were weighed, placed in a solvent for 2 hours, and weighed again.
The solvent ratios in Table 1 are by volume. The ability to swell silicone by 30% or more is believed to be suitable for increasing the loading capacity of silicone. The ability to swell silicone by 50% or more is believed to be more suitable for increasing the loading capacity of silicone.

[2] = for increase in drug loading, pre-extracted relative to non-extracted silicone discs: 2 hour plus 24 hour extracted; for average drug loaded into silicone discs: 24 hr loading, HPLC of 25 mL extract
Method: One sheet was removed after 2 hours; the other was removed after 24. The sheets were allowed to dry for 24 hours.
Nine 1¼ inch discs were punched from each sheet of silicone. The discs (27) were separated into 9 jars (3 per jar). Each jar contained a drug loading solution. Three jars contained clonidine, three contained dexamethasone and three contained sulindac.
After stirring 24 hrs in solution, all the samples were removed, rinsed twice for approximately 10 seconds in a sufficient volume of methanol and allowed to dry overnight in open air on a drying rack. The samples were then stored until extraction in jars in a nitrogen purged foil bag.
Each sample was cut in half, and the half sample was weighed. Initially only the clonidine and sulindac samples were analyzed.
All samples were extracted in THF/ethanol 4:1 (15 mL) for 30 min; then re-extracted in THF/ethanol 4:1 (10 mL) for 20 min. The first and second extracts were combined in a volumetric flask and any additional volume was added to make exactly 25 mL of solution. These samples were stored in at 4° C. until analysis.
HPLC Analysis was performed using an Agilent 1100 stack. For dexamethasone, isocratic separation using acetonytrile:water (45:55) was performed. A Zorbax SB-Phenyl, 5 μm, 4.6×150 mm, column (Agilent Technologies, Inc.) was used at a column temperature of 30° C. The flow rate was 10 mL/min, with a run time of 15 minutes. Dexamethasone was detected by UV at 245 nm.
For sulindac, isocratic separation using 0.1% phosphoric acid in acetonitrile:water (38:62) was performed. A PRONTOSIL 120-5-C18-ace-EPS, 5 μm, 4.6×150 mm, column was used at a column temperature of 37° C. The autosampler temperature was 15° C. The flow rate was 1.0 mL/min, with a run time of 35 min. Sulindac was detected by UV at 285 nm. Injection volumes were 10-50 μL.
The autosample temperature was ambient temperature. Isocratic separation using a mobile phase A (MPA):mobile phase B (MPB) ratio of 52:48 was employed. MPA consisted of 2.2 gm 1-octanesulfonic acid, sodium salt for each liter of nanopure water. MPB was HPLC Grade Methanol. The flow rate was 1 mL/min, with a run time of 15 minutes. […] The injection volume was 10 μL

[3] = Solubility of drug in the loading solution; type: physicochemical; settings: methanol/butyl acetate loading solution, extra 5 mL methanol added
[4] = Loading of minocycline and rifampin into pre-extracted and non-extracted silicone boots; type: physicochemical; settings: for drug concentration in polymer: loading 1 hour in butyl acetate:methanol 85:15
Method: Molded, cured silicone (Dow-Q7 4850) boots designed to fit snuggly around Restore® implantable neurostimulators (Medtroinc, Inc.) were placed in a concentrated drug loading solution containing rifampin (30 mg/ml) and minocycline (15 mg/ml) in butyl acetate:methanol (85:15, by volume). The polymer was allowed to swell in this solution for one hour, rinsed and then dried overnight.
The efficiency of various solvents to extract material from cured silicone was tracked by determining the weight loss post-extraction. […] It was initially assumed that subjecting the polymer to drug loading should fulfill the same function as pre-extracting the material prior to drug loading.
One thought was that the existence of extractables in the loading solution might increase the solubility of the drugs in solution compared to solubility in the silicone, thus lowering the partitioning of drug into the silicone. Eight non-extracted silicone boots and 10 pre-extracted boots were drug loaded in separate loading solutions. Two additional pre-extracted silicone boots were then loaded in the formulation used to load the non-extracted boots. According to the hypothesis, the loading solution used for the non-extracted boots would theoretically contain higher levels of silicone extractables, and result in lower loading of the pre-extracted boots.

[5] = not pre-extracted with butyl acetate
[6] = pre-extracted with butyl acetate for 2 hours
[7] = pre-extracted with butyl acetate for 24 hours

Structure (SMILES): CC(C)=O [Acetone]
% Weight Increase [1]: 15%

Structure (SMILES): CCCCOC(C)=O [Butyl Acetate]
% Weight Increase [1]: 73%

Structure (SMILES): ClC(Cl)Cl [Chloroform]
% Weight Increase [1]: 166%

% Weight Increase [1]: 85%
Structure (SMILES): C1CCCCC1 [Cyclohexane]

% Weight Increase [1]: 62%
Structure (SMILES): C1CCCC1 [Cyclopentane]

% Weight Increase [1]: 54%
Structure (SMILES): CCOC(C)=O [Ethyl acetate]

% Weight Increase [1]: 13%
Structure (SMILES): CC(C)O [Isopropyl alcohol]

% Weight Increase [1]: 105%
Structure (SMILES): C1CCOC1 [THF]

Structure (SMILES): Cc1ccccc1 [Toluene]
% Weight Increase [1]: 85%

increase in drug loading, pre-extracted relative to non-extracted silicone discs [2]: ~6%
average drug loaded into silicone discs [2, 5]: 19.41 ± 0.20 µg/mL
average drug loaded into silicone discs [2, 6]: 20.59 ± 0.20 µg/mL
average drug loaded into silicone discs [2, 7]: 20.49 ± 0.22 µg/mL
Structure (SMILES): Clc1cccc(Cl)c1N=C1NCCN1 [clonidine]

Structure (SMILES): C[C@@H]1C[C@H]2[C@@H]3CCC4=CC(=O)C=C[C@]4(C)[C@@]3(F)[C@@H](O)C[C@]2(C)[C@@]1(O)C(=O)CO [dexamethasone]
solubility in loading solution [3]: substantial insolubility; also recorded: did not seem to dissolve well

drug concentration in polymer ([4]; non-extracted silicone boots): 2.61 mg/g
drug concentration in polymer ([4]; silicone boots pre-extracted with butyl acetate): 3.28 mg/g
increase in drug concentration, pre-extracted vs non-extracted ([4]; silicone boots, same lot): 25.7%
Structure (SMILES): CO[C@H]1/C=C/O[C@@]2(C)Oc3c(C)c(O)c4c(O)c(c(/C=N/N5CCN(C)CC5)c(O)c4c3C2=O)NC(=O)/C(C)=C\C=C\[C@H](C)[C@H](O)[C@@H](C)[C@@H](O)[C@@H](C)[C@H](OC(C)=O)[C@@H]1C [rifampin]

increase in drug loading, pre-extracted relative to non-extracted silicone discs [2]: ~19%
average drug loaded into silicone discs [2, 5]: 1.56 ± 0.03 µg/mL
average drug loaded into silicone discs [2, 6]: 1.86 ± 0.06 µg/mL
average drug loaded into silicone discs [2, 7]: 1.88 ± 0.11 µg/mL
Structure (SMILES): CC1=C(CC(=O)O)c2cc(F)ccc2/C1=C\c1ccc([S+](C)[O-])cc1 (stereo not drawn) [sulindac]
